Reference: BindingDB's records for patent USRE47740 (Syntrix Biosystems Inc., 2019)

Molecular target: T1, C-X-C chemokine receptor type 2 (Homo sapiens, UniProt P25025)
T1 sequence (P25025 whole entry): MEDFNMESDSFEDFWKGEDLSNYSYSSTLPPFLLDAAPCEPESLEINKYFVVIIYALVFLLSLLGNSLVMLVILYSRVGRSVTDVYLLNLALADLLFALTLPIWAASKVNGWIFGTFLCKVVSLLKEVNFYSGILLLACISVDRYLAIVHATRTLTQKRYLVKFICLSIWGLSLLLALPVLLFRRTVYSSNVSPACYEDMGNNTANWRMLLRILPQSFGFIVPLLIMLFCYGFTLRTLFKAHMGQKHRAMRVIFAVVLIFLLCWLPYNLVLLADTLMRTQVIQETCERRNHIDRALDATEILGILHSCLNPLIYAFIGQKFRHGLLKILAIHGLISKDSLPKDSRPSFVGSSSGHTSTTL
Assay: In Vitro Inhibition of Intracellular Calcium Release
Method: Briefly, human neutrophils were suspended in HBSS− (without Ca2+ and Mg2+) containing 10 mM HEPES and FLIPR Calcium 3 dye (3.1×10^7 cells in total volume 1.7 mL). Cells were aliquoted (200 μL of the cell suspension per tube, 8 tubes total) and 2 μL of compound 9 (with appropriate dilutions) were added to each of 6 tubes. The tested concentrations of compound 9 were 156 nM, 312 nM, 625 nM, 1250 nM, 2500 nM and 5000 nM. As controls, 2 μL of DMSO (1% final concentration) were added to 2 other tubes. Cells were incubated for 30 min at 37° C. […] The cell suspension was aliquoted into a 96-well Reading Plate (Corning) in a volume of 90 μL (10^5 cells/well). […] After 15 sec of reading the basal level of fluorescence by FlexStation II, 10 μL of GROα or HBSS− were automatically transferred from the Compound Plate into the Reading Plate (final concentration of GROα was 25 nM). Changes in fluorescence were monitored (λex=485 nm, λem=525 nm) every 5 s for 240 to 500 s at room temperature.The maximum change in fluorescence, expressed in arbitrary units over baseline (Max-Min), was used to determine the GROα response. The effect of each compound on the GROα response was normalized and expressed as a percent of the DMSO control, which was designated as 100% response. […]

An IC50 of 1500 nM was found for `CC1(C)OB(c2ccccc2CNc2ccc(C(=O)Nc3ccc(F)cc3)cn2)OC1(C)C` [USRE47740, Compound 7] in this work.
